What was measured:
[1] = tested on: STEME; experiment: A. Herbicidal pre-emergence action on harmful plants (Tables A); format: in vivo, Stellaria media; conditions: visual grading after ca. 3 weeks vs untreated controls, 100% = plants have died off, 0% = as control plants
Procedure, shortened: (§1)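 Values are visual percent damage relative to untreated controls, scored ca. 3 weeks after the compound was sprayed on the covering soil of sown pots (sandy loam) at rates up to 1280 g/ha, formulated as WP or EC with 0.5% additive.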

[2] = tested on: ORYZA; experiment: F. Post-emergence effects on crop plants (Tables F); format: in vivo, Oryza sativa; conditions: application rate 80 g/ha, crop plant
Excerpt: (§2) Seeds of mono- and dicotyledonous weed plants and crop plants were sown, in plastic or organic planting pots, in sandy loam, covered with soil and grown in a greenhouse under controlled growth conditions. 2 to 3 weeks after sowing, the test plants were sprayed in the single-leaf stage. The compounds according to the invention, formulated in form of wettable powders (WP) or as emulsifiable concentrates (EC), were sprayed onto the green plant parts as aqueous suspension or emulsion, with the addition of 0.5% of an additive, at an application rate of 6001 of water/ha (converted). The test plants were placed in the greenhouse for ca. 3 weeks under optimum growth conditions, and then the effect of the preparations was assessed visually in comparison with untreated controls (herbicidal effect in percent (%): 100% effect = plants have died off, 0% effect = as control plants). Tables F1 to F5 below show the effects of selected compounds of the general formula (I) according to table 1 on various crop plants and an application rate corresponding to 320 g/ha or below obtained by the experimental procedure mentioned above. Table […]: post-emergence activity at 320g/ha against ZEAMX in %

[3] = tested on: ECHCG; experiment: A. Herbicidal pre-emergence action on harmful plants (Tables A); format: in vivo, Echinochloa crus-galli; conditions: visual grading after ca. 3 weeks vs untreated controls, 100% = plants have died off, 0% = as control plants
Procedure, shortened: as §1

[4] = tested on: BRSNW; experiment: D. Pre-emergence effects on crop plants (Tables D); format: in vivo, Brassica napus; conditions: application rate 80 g/ha, crop plant
Excerpt: (§3) Seeds of mono- and dicotyledonous weed plants and crop plants were sown, in plastic or organic planting pots, in sandy loam and covered with soil. The compounds according to the invention, formulated in the form of wettable powders (WP) or as emulsifiable concentrates (EC), were applied to the surface of the covering soil as aqueous suspension or emulsion, with the addition of 0.5% of an additive, at an application rate of 6001 of water/ha (converted).
(§4) Following treatment, the pots were placed in a greenhouse and kept under optimum growth conditions for the test plants. The visual grading of the damage to the test plants was carried out after ca. 3 weeks in comparison to untreated controls (herbicidal effect in percent (%): 100% effect = plants have died off, 0% effect = as control plants).
(§5) Tables D1 to D5 below show the effects of various compounds of the general formula (I) according to Table 1 on various crop plants and an application rate corresponding to 320 g/ha or below obtained by the experimental procedure mentioned above in Biological Examples, Section C. Table D1a: pre-emergence activity at 320g/ha against ZEAMX in %

[5] = tested on: GLXMA; experiment: F. Post-emergence effects on crop plants (Tables F); format: in vivo, Glycine max; conditions: application rate 320 g/ha, crop plant
Excerpt: as §2

[6] = tested on: GLXMA; experiment: D. Pre-emergence effects on crop plants (Tables D); format: in vivo, Glycine max; conditions: crop plant
Excerpt: as §3, §4, §5

[7] = tested on: VIOTR; experiment: C. Herbicidal pre-emergence action, weed and crop plants (Tables C); format: in vivo, Viola tricolor; conditions: application rate 320 g/ha; Table C12a
Excerpt: (§6) Seeds of mono- and dicotyledonous weed plants and crop plants were sown, in plastic or organic planting pots, in sandy loam and covered with soil. The compounds according to the invention, formulated in the form of wettable powders (WP) or as emulsifiable concentrates (EC), were applied to the surface of the covering soil as aqueous suspension or emulsion, with the addition of 0.5% of an additive, at an application rate of 6001 of water/ha (converted). Following treatment, the pots were placed in a greenhouse and kept under optimum growth conditions for the test plants. The visual grading of the damage to the test plants was carried out after ca. 3 weeks in comparison to untreated controls (herbicidal effect in percent (%): 100% effect = plants have died off, 0% effect = as control plants). Tables C1 to C12 below show the effects of selected compounds of the general formula (I) according to table 1 on various harmful plants and an application rate corresponding to 320 g/ha or below obtained by the experimental procedure mentioned above. Table C1: pre-emergence activity at 320g/ha against KCHSC in %

[8] = tested on: TRZAS; experiment: F. Post-emergence effects on crop plants (Tables F); format: in vivo, Triticum aestivum; conditions: application rate 80 g/ha, crop plant
Excerpt: as §2

[9] = tested on: POAAN; experiment: A. Herbicidal pre-emergence action on harmful plants (Tables A); format: in vivo, Poa annua
Procedure, shortened: as §1

[10] = tested on: ORYZA; experiment: D. Pre-emergence effects on crop plants (Tables D); format: in vivo, Oryza sativa; conditions: crop plant; application rate 80 g/ha; Table D3b
Excerpt: as §3, §4, §5

[11] = tested on: BRSNW; experiment: F. Post-emergence effects on crop plants (Tables F); format: in vivo, Brassica napus; conditions: application rate 80 g/ha, crop plant
Excerpt: as §2

[12] = tested on: LOLRI; experiment: C. Herbicidal pre-emergence action, weed and crop plants (Tables C); format: in vivo, Lolium rigidum; conditions: application rate 320 g/ha; Table C7a
Excerpt: as §6

[13] = tested on: ECHCG; experiment: as above; format: in vivo, Echinochloa crus-galli; conditions: application rate 320 g/ha; Table C6a
Excerpt: as §6

[14] = tested on: SETVI; experiment: A. Herbicidal pre-emergence action on harmful plants (Tables A); format: in vivo, Setaria viridis; conditions: visual grading after ca. 3 weeks vs untreated controls, 100% = plants have died off, 0% = as control plants
Procedure, shortened: as §1

[15] = tested on: ZEAMX; experiment: F. Post-emergence effects on crop plants (Tables F); format: in vivo, Zea mays; conditions: application rate 80 g/ha, crop plant
Excerpt: as §2

[16] = tested on: MATIN; experiment: A. Herbicidal pre-emergence action on harmful plants (Tables A); format: in vivo, Matricaria inodora; conditions: application rate 1280 g/ha; visual grading after ca. 3 weeks vs untreated controls; 100% = plants have died off, 0% = as control plants
Procedure, shortened: as §1

[17] = tested on: LOLRI; experiment: as above; format: in vivo, Lolium rigidum; conditions: application rate 1280 g/ha; visual grading after ca. 3 weeks vs untreated controls; 100% = plants have died off, 0% = as control plants
Procedure, shortened: as §1

[18] = tested on: DIGSA; experiment: C. Herbicidal pre-emergence action, weed and crop plants (Tables C); format: in vivo, Digitaria sanguinalis
Excerpt: as §6

pre-emergence activity against GLXMA ([6]; application rate 80 g/ha, Table D4b): 0%
pre-emergence activity against GLXMA ([6]; application rate 320 g/ha, Table D4a): 20%
pre-emergence activity against ORYZA [10]: 20%
Structure (SMILES): COCc1nn(C)cc1C(=O)N1CCCC1Cc1cc(F)ccc1F (racemic) [Example I-001]
pre-emergence activity against STEME ([1]; application rate 320 g/ha): 90%
pre-emergence activity against STEME ([1]; application rate 1280 g/ha): 90%
post-emergence activity against ORYZA in % [2]: 0%
pre-emergence activity against ECHCG ([3]; application rate 320 g/ha): 100%
pre-emergence activity against ECHCG ([3]; application rate 1280 g/ha): 100%
pre-emergence activity against BRSNW in % [4]: 0%
post-emergence activity against GLXMA in % [5]: 20%
pre-emergence activity against VIOTR [7]: 80%
post-emergence activity against TRZAS in % [8]: 10%
pre-emergence activity against POAAN ([9]; application rate 80 g/ha, Table A7c): 100%
pre-emergence activity against POAAN ([9]; application rate 320 g/ha, Table A7b): 100%
pre-emergence activity against POAAN ([9]; application rate 1280 g/ha, visual grading after ca. 3 weeks vs untreated controls, 100% = plants have died off, 0% = as control plants): 100%
post-emergence activity against BRSNW in % [11]: 10%
pre-emergence activity against LOLRI [12]: 80%
pre-emergence activity against ECHCG [13]: 90%
pre-emergence activity against SETVI ([14]; application rate 320 g/ha): 90%
pre-emergence activity against SETVI ([14]; application rate 1280 g/ha): 100%
post-emergence activity against ZEAMX in % [15]: 0%
pre-emergence activity against MATIN [16]: 90%
pre-emergence activity against LOLRI [17]: 100%
pre-emergence activity against DIGSA ([18]; application rate 80 g/ha, Table C5b): 90%
pre-emergence activity against DIGSA ([18]; application rate 320 g/ha, Table C5a): 100%
